Some test systems named below: HT29 colon; SN12C renal; CAKI-1 renal; 786-0 renal; MOLT-4 leukemia; EKVX NSCLC; NCI-H460 lung; SF-295 CNS; OVCAR-4 ovarian.
What all share (experiment): growth of human tumour cells (NCI), 48 h

Structures are written as SMILES.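 Interpolation was linear, between the two tested concentrations surrounding the appropriate level; five concentrations were tested over 48 hours in 96-well plates. The concentration for 50% growth inhibition is given as GI50. The concentration for full growth arrest is given as TGI.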

Data on 14 molecules can be found in PubChem BioAssay (NCI).

Turning to `CC(=O)O[C@H]1CCC2[C@@H]3CCC4Nc5[nH]ncc5C[C@]4(C)C3CC[C@@]21C` (stereo not given in full), the TGI in the experiment with HT29 colon was greater than 100 µM; in the experiment on SN12C renal, greater than 100 µM; with CAKI-1 renal it was greater than 100 µM; in the experiment on 786-0 renal, greater than 100 µM; in the experiment on MOLT-4 leukemia it was 58.6 µM; in the experiment on EKVX NSCLC it was greater than 100 µM. Moreover, the TGI with NCI-H460 lung, with SF-295 CNS and with OVCAR-4 ovarian was greater than 100 µM throughout.

`COC(=O)[C@H]1C=C[C@@H](C)n2c(=O)c3cc4ccccc4cc3c(=O)n21`: the TGI in the experiment with SN12C renal, in the experiment on CAKI-1 renal, in the experiment with 786-0 renal, in the experiment on MOLT-4 leukemia, with EKVX NSCLC and with NCI-H460 lung was greater than 100 µM each time. The molecule also had a TGI with SF-295 CNS greater than 100 µM.

Take `O=[N+]([O-])c1ccc(N2N=C(c3ccc(NCc4nc5ccccc5[nH]4)cc3)CC2c2ccco2)cc1` (stereo not given): the TGI in the experiment with HT29 colon is 90.6 µM; in the experiment on SN12C renal, 61.9 µM; in the experiment with CAKI-1 renal it was greater than 100 µM; with 786-0 renal, greater than 100 µM; with MOLT-4 leukemia, 31.3 µM; in the experiment on NCI-H460 lung, greater than 100 µM. Moreover, the values for the TGI in the experiment with SF-295 CNS and in the experiment on OVCAR-4 ovarian were 74.7 µM and 64.8 µM, respectively.

With `Cc1ccc(NC(=O)CSc2nnc(-c3ccc(N=Cc4ccc(Cl)cc4)cc3)o2)cc1`, the TGI in the experiment with HT29 colon, with SN12C renal, with 786-0 renal, with MOLT-4 leukemia, in the experiment with EKVX NSCLC and in the experiment with NCI-H460 lung was greater than 100 µM throughout. Besides, the TGI in the experiment with SF-295 CNS and in the experiment with OVCAR-4 ovarian was greater than 100 µM in each case.

With `CC(C)N(C(=O)C12C3C4C1(I)C1C2C3(I)C41C(=O)N(C(C)C)C(C)C)C(C)C` (stereo not given), the TGI is greater than 100 µM with HT29 colon; greater than 100 µM with SN12C renal; greater than 100 µM in the experiment on CAKI-1 renal; greater than 64.4 µM with 786-0 renal; greater than 100 µM in the experiment with MOLT-4 leukemia; greater than 100 µM with EKVX NSCLC. The TGI in the experiment with NCI-H460 lung, in the experiment on SF-295 CNS and with OVCAR-4 ovarian was greater than 100 µM throughout.

Regarding `Cc1c(/C=N/NC(=O)c2ccc(Cl)cc2)c(=O)n(-c2ccccc2)n1C`, the TGI in the experiment with HT29 colon, with SN12C renal, in the experiment with 786-0 renal, in the experiment on MOLT-4 leukemia, in the experiment on EKVX NSCLC and in the experiment with NCI-H460 lung was greater than 100 µM each time. The TGI in the experiment with SF-295 CNS and in the experiment on OVCAR-4 ovarian was greater than 100 µM each time.

Turning to `O=S(=O)(c1ccccc1)C1CN2OC1(S(=O)(=O)c1ccccc1)CC2c1ccc(Br)cc1` (stereo not given), the TGI in the experiment with HT29 colon, in the experiment on SN12C renal, in the experiment on CAKI-1 renal, in the experiment with 786-0 renal, in the experiment on MOLT-4 leukemia and with EKVX NSCLC was greater than 100 µM throughout. The TGI in the experiment with NCI-H460 lung, in the experiment with SF-295 CNS and with OVCAR-4 ovarian was greater than 100 µM throughout.

As for `COc1c[c]([Hg][O]C(C)=O)c(OC)c(NC(=O)CC(C)=O)[c]1[Hg][O]C(C)=O`, the GI50 was 4.21 µM in the experiment with HT29 colon; 13.7 µM in the experiment with SN12C renal; 2.26 µM in the experiment on CAKI-1 renal; 2.48 µM in the experiment on 786-0 renal; 2.32 µM with MOLT-4 leukemia; 19.9 µM with EKVX NSCLC. The GI50 in the experiment with NCI-H460 lung was 16.3 µM; with SF-295 CNS, greater than 41.7 µM; in the experiment on OVCAR-4 ovarian, 15.9 µM. Also, the TGI worked out at 19.6 µM with HT29 colon; 27.8 µM in the experiment with SN12C renal; 4.26 µM with CAKI-1 renal; 7.71 µM with 786-0 renal; 6.85 µM in the experiment with MOLT-4 leukemia; 36.3 µM in the experiment on EKVX NSCLC. For the same molecule, the figures for the TGI in the experiment with NCI-H460 lung, in the experiment on SF-295 CNS and with OVCAR-4 ovarian were 39 µM, greater than 55.8 µM and 30 µM, respectively.

For `Cc1nc([N+](=O)[O-])cn1CC(=N)N`, the TGI in the experiment with HT29 colon, in the experiment with SN12C renal, with 786-0 renal, in the experiment on MOLT-4 leukemia, with EKVX NSCLC and with NCI-H460 lung was greater than 100 µM each time. Besides, the TGI with SF-295 CNS and with OVCAR-4 ovarian was greater than 100 µM in each case.

For `Cc1ccc(S(=O)(=O)c2ccc(N)cc2)cc1`, the TGI with HT29 colon, with CAKI-1 renal, in the experiment on 786-0 renal, in the experiment on MOLT-4 leukemia, in the experiment with EKVX NSCLC and in the experiment on NCI-H460 lung was greater than 100 µM in each case. Further, the TGI with SF-295 CNS and with OVCAR-4 ovarian was greater than 100 µM each time.

Take `C/C(CC(=O)Nc1cccc(Cl)c1C)=N\NC(=O)c1ccncc1`: the TGI in the experiment on HT29 colon, with 786-0 renal, in the experiment with MOLT-4 leukemia, in the experiment on EKVX NSCLC, with NCI-H460 lung and in the experiment on SF-295 CNS was greater than 100 µM throughout.

Turning to `CC1=C(C(=O)Nc2ccc(Cl)c(Cl)c2)C(c2cccc(Oc3ccccc3)c2)NC(=O)N1` (stereo not given), the GI50 is 5.28 µM in the experiment on SN12C renal; 7.64 µM in the experiment on CAKI-1 renal; 10.2 µM in the experiment with 786-0 renal; greater than 50 µM in the experiment with MOLT-4 leukemia; 5.21 µM with EKVX NSCLC; 4.94 µM in the experiment with NCI-H460 lung. Further, the figures for the GI50 in the experiment on SF-295 CNS and in the experiment on OVCAR-4 ovarian were 5.57 µM and 11.2 µM, respectively. The TGI with SN12C renal is 12.5 µM; in the experiment with CAKI-1 renal, 20.4 µM; in the experiment on 786-0 renal it was 20.8 µM; with MOLT-4 leukemia, greater than 50 µM; in the experiment on EKVX NSCLC it was 16.3 µM; in the experiment on NCI-H460 lung it was 32.8 µM. The results for the TGI with SF-295 CNS and in the experiment with OVCAR-4 ovarian were 16.6 µM and greater than 50 µM, respectively.

On to `CN[C@@H](C)[C@@H](NC)c1ccccc1`, for which the TGI with HT29 colon, in the experiment with SN12C renal, in the experiment with CAKI-1 renal, in the experiment with 786-0 renal, in the experiment with MOLT-4 leukemia and with EKVX NSCLC was greater than 100 µM throughout. For the same molecule, the TGI in the experiment with NCI-H460 lung and in the experiment with SF-295 CNS was greater than 100 µM throughout.

For the molecule `O=C(/C=C/c1ccccc1Cl)NC1C=Nc2ccc([N+](=O)[O-])cc2NC1` (stereo not given), the TGI with SN12C renal is greater than 100 µM; in the experiment on CAKI-1 renal it was greater than 100 µM; in the experiment on 786-0 renal, greater than 100 µM; in the experiment on MOLT-4 leukemia, 49.3 µM; in the experiment on EKVX NSCLC, greater than 100 µM; in the experiment on NCI-H460 lung, greater than 100 µM. Further, the TGI in the experiment with SF-295 CNS and in the experiment on OVCAR-4 ovarian was greater than 100 µM throughout.
